The source of these data is patent publication US11059801B2, “Methods to induce targeted protein degradation through bifunctional molecules” (Dana-Farber Cancer Institute, Inc., priority 2014, dated 2021).

In assay [1] the target is BRD4 adjoined to nanoluciferase (Nluc) (Homo sapiens (Human), UniProt O60885+Q96SW2). Description: BRD4 Dual Luciferase Assay. In kind it is cell-based.
Protocol: Transduced cells were selected with puromycin and expanded. […] Cells were incubated with compound for 4 hours at 37° C., 5% CO2 and then allowed to cool to room temperature. To each plate was added 25 μL of Fluc buffer (200 mM Tris, 15 mM MgSO4, 100 uM EDTA, 1 mM DTT, 1 mM ATP, 200 uM Coenzyme A, 400 uM D-Luciferin, 0.1% Trition X-100).
A further assay concerns the target CRBN-DDB1/BRD4 (Homo sapiens (Human), UniProt O60885+Q96SW2). Description: CRBN-DDB1/BRD4 Dimerization Assay.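 Also: AlphaScreen proximity signal between GST-tagged BRD4 and CRBN-DDB1 with glutathione donor and nickel chelate acceptor beads, read after 1 hr compound incubation at room temperature, values from Gaussian curve fit.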 In kind it is binding.
Assay [2] concerns the target T1, BRD4 (Homo sapiens (Human), UniProt O60885). Description: BRD4 Cell Western (BRD4 levels in 293T cells, LiCOR). In kind it is cell-based.
Protocol: On the following day, dBET compounds were added at various concentrations. After being treated with the dBET compounds for 4 hours, cells were fixed with formaledhyde, permeabilized using 0.1% triton, blocked with LiCor blocking buffer, and incubated with the primary antibody (BRD4, 1:1000) overnight. On the following day, cells were washed (5×TBST) and stained using Odysee Cell Stain (1:500). A secondary antibody recoginizing the rabbit BRD4 antibody was added simultaneously (1:800). Images were quantified using LiCOR imager.
In assay [3] the target is T1, BRD4. Description: BRD4 AlphaScreen. In kind it is binding. The conditions noted are these: Table 4-1. (In general: Bead proximity is the source of the signal in Alpha formats.)
Protocol: Cells were grown at 37° C. to an OD of 0.8, induced with 500 μM isopropyl-1-thio-D-galactopyranoside, incubated overnight at 17° C., collected by centrifugation, and stored at −80° C. Cell pellets were sonicated in buffer A (50 mM hepes 7.5+300 mM NaCl+10% glycerol+10 mM Imidazole+3 mM BME) and the resulting lysate was centrifuged at 35,000×g for 40 min. […] The sample was then passed through a desalting column ( 26/10 column) equilibrate with buffer A (without imidazole), and the eluted protein was subjected to a second Ni-NTA step to remove His-tag and TEV. The eluant was concentrated and passed through a Superdex-200 10/300 column in 20 mM hepes7.5+150 mM NaCl+1 mM DTT. Fractions were pooled, concentrated to 14 mg/ml, and frozen at −80° C.
The data were analyzed using PRISM Graphpad v6 to obtain IC50 values.
A further assay concerns NGP. Briefly: Cell viability, ATPlite, 72 hours. In kind it is cell-based. The conditions noted are these: NGP cells, Table 4-1. For orientation: ATP-based viability assays read luminescence as a measure of living cells.
The target in assay [4] is fusion of mutant FKBP12 to nanoluciferase (Homo sapiens (Human), UniProt P62942+Q96SW2, F36V). Description: FKBP Dual Luciferase Assay (mutant FKBP12, 36V).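 As to all read-outs here: cells exposed to rising degrader concentrations, FKBP12 fusion level read as NLuc/FLuc signal ratio, lower ratio means more degradation.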 The conditions noted are these: 4 hours; for DC50: read-out: DC50 (nM) FKBP 36V. In kind it is cell-based.
Protocol: (§1) The cells were treated with increasing concentrations of various dFKBPs for 4 hours. The amount of NLuc and FLuc was measured, and the abundance of the FKBP12-HA-NLuc was quantified by calculating the signal ratio of NLuc/FLuc.
Assay [5] deals with fusion of FKBP12 to nanoluciferase (Homo sapiens (Human), UniProt P62942+Q96SW2). Briefly: FKBP Dual Luciferase Assay (FKBP12). It counts as cell-based. The conditions noted are these: 4 hours.
Protocol: as §1
Another assay addresses GST-FKBP12 (36V) (Homo sapiens (Human), UniProt P62942, F36V). Briefly: FKBP12 Ligand-Displacement AlphaScreen Assay (36V). It counts as binding. The conditions noted are these: read-out: IC50 (nM) FKBP 36V.
Another assay deals with GST-FKBP12 (WT) (Homo sapiens (Human), UniProt P62942). Briefly: FKBP12 Ligand-Displacement AlphaScreen Assay (WT). It counts as binding. The conditions noted are these: read-out: IC50 (nM) FKBP.
Where [6] appears, read: Gaussian fit of dimerization signal.
[7] abbreviates: Gaussian fit parameter of dimerization signal.

Like-named read-outs stand apart in the source and are kept apart here.

Sequence of GST-FKBP12 (36V) (P62942 whole entry F37V): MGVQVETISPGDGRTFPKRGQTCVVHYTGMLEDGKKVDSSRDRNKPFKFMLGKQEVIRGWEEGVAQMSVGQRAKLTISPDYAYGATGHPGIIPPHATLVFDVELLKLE
Sequence of GST-FKBP12 (WT) (P62942 whole entry): as the sequence (P62942 whole entry F37V) above, with V37F counted along it
Protocol for GST-FKBP12 (36V): (§2) Following a 30 min-incubation, 20 uL detection solution containing Streptavidin Donor Beads and Glutathione Acceptor Beads diluted to 20 ng/uL in assay buffer was added to each well. […] Percent activity values were calculated by setting the average background (no protein wells) to 0% the average DMSO wells to 100% activity. Standard deviations were determined from at least four replicate measurements for compound concentration.
Protocol for GST-FKBP12 (WT): as §2

Consider `CC[C@@H]1C(=O)N(C)c2cnc(Nc3ccc(C(=O)NCCCOCCOCCOCCCNC(=O)COc4cccc5c4C(=O)N(C4CCC(=O)NC4=O)C5=O)cc3OC)nc2N1C1CCCC1` (stereo partly shown) [dBET10], for which, in [1] (concentration at Emax), the “Conc@Emax” value is 50 µM. Besides, at CRBN-DDB1/BRD4 (setting [6]), the “Dimer Amplitude” value is listed as 12824 and the “Dimer Mean” value is −7.349. Moreover, the “Dimer SD” value at CRBN-DDB1/BRD4 (setting [7]) turned out to be 0.5165. The same compound came in with a DC50 on BRD4 [2] of 58 nM.

On to `Cc1sc2c(c1C)C(c1ccc(Cl)cc1)=N[C@@H](CC(=O)NCCCN1CCN(C(=O)CCCCCNC(=O)COc3cccc4c3C(=O)N(C3CCC(=O)NC3=O)C4=O)CC1)c1nnc(C)n1-2` (stereo partly shown) [dBET18], for which, in assay [1] (Dual Luciferase, 4 hours), the DC50 turned out to be 243 nM. Moreover, in assay [1] (concentration at Emax), the “Conc@Emax” value worked out at 1.581 µM. Also, the “pDC50 (dual luc)” value in [1] (4 hours) came to 6.614. Further, at CRBN-DDB1/BRD4 (setting [6]), the “Dimer Amplitude” value amounted to 13116 and the “Dimer Mean” value is recorded as −8.173. Besides, at CRBN-DDB1/BRD4 (setting [7]), the “Dimer SD” value was found to be 0.618. For the same compound, on BRD4 [2], the DC50 worked out at 196 nM.

Turning to `COc1cc(C(=O)NCCCOCCOCCOCCCNC(=O)COc2cccc3c2C(=O)N(C2CCC(=O)NC2=O)C3=O)ccc1Nc1ncc2c(n1)N(C)c1ccccc1C(=O)N2C` (stereo not shown) [dBET12], it took 2080 nM to reach half-maximal inhibition against BRD4 [3] (IC50). For the same compound, on CRBN-DDB1/BRD4 (setting [6]), the “Dimer Amplitude” value is recorded as 173.7 and the “Dimer Mean” value was −6.366. Besides, the “Dimer SD” value at CRBN-DDB1/BRD4 (setting [7]) was 3.287.

On to `Cc1sc2c(c1C)C(c1ccc(Cl)cc1)=N[C@@H](CC(=O)NCCCCOc1cccc3c1C(=O)N(C1CCC(=O)NC1=O)C3=O)c1nnc(C)n1-2` (stereo partly shown) [dBET28], for which the “Conc@Emax” value in [1] (concentration at Emax) worked out at 0.001581 µM. For the same compound, on CRBN-DDB1/BRD4 (setting [6]), the “Dimer Amplitude” value turned out to be 1752 and the “Dimer Mean” value is reported as −7.037. In addition, on CRBN-DDB1/BRD4 (setting [7]), the “Dimer SD” value was 1.263.

For the compound `Cc1sc2c(c1C)C(c1ccc(Cl)cc1)=N[C@@H](CC(=O)NCCCCCCCCNC(=O)COc1cccc3c1C(=O)N(C1CCC(=O)NC1=O)C3=O)c1nnc(C)n1-2` (stereo partly shown) [dBET6], the “IC50 (nM) NGP” value in the assay with NGP is 187/6.

For the compound `Cc1sc2c(c1C)C(c1ccc(Cl)cc1)=N[C@@H](CC(=O)NCCOCCOCCNC(=O)COc1cccc3c1C(=O)N(C1CCC(=O)NC1=O)C3=O)c1nnc(C)n1-2` (stereo partly shown) [dBET24], the “Conc@Emax” value in assay [1] (concentration at Emax) stood at 5 µM. For the same compound, on CRBN-DDB1/BRD4 (setting [6]), the “Dimer Amplitude” value was 31348 and the “Dimer Mean” value was −7.489. For the same compound, at CRBN-DDB1/BRD4 (setting [7]), the “Dimer SD” value is given as 0.6531.

In the case of `CCC(C)(C)C(=O)C(=O)N1CCCC[C@H]1C(=O)O[C@H](CCc1ccc(OC)c(OC)c1)c1cccc(NC(=O)CCC(=O)NCCCCNC(=O)COc2cccc3c2C(=O)N(C2CCC(=O)NC2=O)C3=O)c1` (stereo partly shown) [dFKBP-1], the DC50 worked out at 153 nM in assay [4] (FKBP 36V) and 11 nM in [5]. In addition, the IC50 (in general, the concentration that inhibits the measured activity by half) on GST-FKBP12 (36V) worked out at 237 nM.

Turning to `CCC(C)(C)C(=O)C(=O)N1CCCC[C@H]1C(=O)O[C@H](CCc1ccc(OC)c(OC)c1)c1cccc(OCC(=O)NCCCCNC(=O)COc2cccc3c2C(=O)N(C2CCC(=O)NC2=O)C3=O)c1` (stereo partly shown) [c1FKBP-4], the “Max Degradation (dual luciferase, %) FKBP 36V” value in [4] was 21%. The “Max Degradation (dual luciferase, %) FKBP” value in [5] is listed as 34%. Also, the 50% inhibitory concentration (IC50) at GST-FKBP12 (WT) was 408 nM; at GST-FKBP12 (36V) it was 369 nM.

`Cc1sc2c(c1C)C(c1ccc(Cl)cc1)=N[C@@H](CC(=O)NCCCCCCNC(=O)COc1cccc3c1C(=O)N(C1CCC(=O)NC1=O)C3=O)c1nnc(C)n1-2` (stereo partly shown) [dBET5]: the “Conc@Emax” value in assay [1] (concentration at Emax) amounted to 1.581 µM. In addition, on CRBN-DDB1/BRD4 (setting [6]), the “Dimer Amplitude” value was determined as 18644 and the “Dimer Mean” value is −6.277. The “Dimer SD” value at CRBN-DDB1/BRD4 (setting [7]) was 0.4127.

Turning to `Cc1sc2c(c1C)C(c1ccc(Cl)cc1)=N[C@@H](CC(=O)NCCOCCOc1cccc3c1C(=O)N(C1CCC(=O)NC1=O)C3=O)c1nnc(C)n1-2` (stereo partly shown) [dBET27], in [1] (concentration at Emax), the “Conc@Emax” value worked out at 0.5 µM. Moreover, at CRBN-DDB1/BRD4 (setting [6]), the “Dimer Amplitude” value is listed as 11278 and the “Dimer Mean” value is given as −7.202. In addition, the “Dimer SD” value on CRBN-DDB1/BRD4 (setting [7]) was determined as 0.7693.

Regarding `CC[C@@H]1C(=O)N(C)c2cnc(Nc3ccc(C(=O)NCCCCCCNC(=O)COc4cccc5c4C(=O)N(C4CCC(=O)NC4=O)C5=O)cc3OC)nc2N1C1CCCC1` (stereo partly shown) [dBET7], the “Conc@Emax” value in assay [1] (concentration at Emax) was 0.5 µM. For the same compound, at CRBN-DDB1/BRD4 (setting [6]), the “Dimer Amplitude” value came out at 31800 and the “Dimer Mean” value is −6.18. At CRBN-DDB1/BRD4 (setting [7]), the “Dimer SD” value is listed as 0.4549.

`Cc1cnc(Nc2ccc(N3CCN(C(=O)CCCNC(=O)COc4cccc5c4C(=O)N(C4CCC(=O)NC4=O)C5=O)CC3)cc2)nc1Nc1cccc(S(=O)(=O)NC(C)(C)C)c1` (stereo not shown) [dBET20]: at BRD4 [3], the half-inhibitory concentration (IC50) stood at 5700 nM. Further, the “pDC50 (dual luc)” value in [1] (4 hours) turned out to be 6.686.

As for `CC[C@H](C(=O)N1CCCC[C@H]1C(=O)O[C@H](CCc1ccc(OC)c(OC)c1)c1cccc(OCC(=O)NCCCOCCOCCOCCCNC(=O)COc2cccc3c2C(=O)N(C2CCC(=O)NC2=O)C3=O)c1)c1cc(OC)c(OC)c(OC)c1` (stereo partly shown) [c1FKBP*-7], the DC50 in [4] (FKBP 36V) was 0.5 nM. For the same compound, the IC50 is more than 50000 nM at GST-FKBP12 (WT) and 373 nM on GST-FKBP12 (36V).

Regarding `CCC(C)(C)C(=O)C(=O)N1CCC[C@H]1C(=O)O[C@H](CCc1ccc(OC)c(OC)c1)c1cccc(OCC(=O)NCCCCNC(=O)COc2cccc3c2C(=O)N(C2CCC(=O)NC2=O)C3=O)c1` (stereo partly shown) [c1FKBP-3], in assay [4], the “Max Degradation (dual luciferase, %) FKBP 36V” value came out at 12%. Moreover, the DC50 in assay [5] came to 19700 nM. Besides, the “Max Degradation (dual luciferase, %) FKBP” value in assay [5] is 22%. Moreover, the half-inhibitory concentration (IC50) stood at 1830 nM at GST-FKBP12 (WT) and 1200 nM on GST-FKBP12 (36V).

As to `CC[C@H](C(=O)N1CCCC[C@H]1C(=O)O[C@H](CCc1ccc(OC)c(OC)c1)c1cccc(OCC(=O)NCCCCCCNC(=O)COc2cccc3c2C(=O)N(C2CCC(=O)NC2=O)C3=O)c1)c1cc(OC)c(OC)c(OC)c1` (stereo partly shown) [c1FKBP*-8], the DC50 in assay [4] (FKBP 36V) was 0.8 nM. Also, the Dmax in assay [4] (FKBP 36V, read-out: Max Degradation (dual luciferase, %) FKBP 36V) is 75%; in assay [5] (read-out: Max Degradation (dual luciferase, %) FKBP), less than 5%. The half-maximal inhibitory concentration (IC50) at GST-FKBP12 (WT) is more than 50000 nM; at GST-FKBP12 (36V), 365 nM.

Consider `Cc1c(C(=O)NCCCCCCCCNC(=O)COc2cccc3c2C(=O)N(C2CCC(=O)NC2=O)C3=O)sc2c1C(c1ccc(Cl)cc1)=N[C@@H](CC(=O)NCCCN1CCN(C)CC1)c1nnc(C)n1-2` (stereo partly shown) [dBET31], for which the “Conc@Emax” value in assay [1] (concentration at Emax) is 15.81 µM. For the same compound, at CRBN-DDB1/BRD4 (setting [6]), the “Dimer Amplitude” value is given as 32323 and the “Dimer Mean” value is −7.374. Moreover, the “Dimer SD” value at CRBN-DDB1/BRD4 (setting [7]) came out at 0.6046.

On to `CC[C@H](C(=O)N1CCCC[C@H]1C(=O)O[C@H](CCc1ccc(OC)c(OC)c1)c1cccc(OCC(=O)NCCCCNC(=O)COc2cccc3c2C(=O)N(C2CCC(=O)NC2=O)C3=O)c1)c1cc(OC)c(OC)c(OC)c1` (stereo partly shown) [c1FKBP*-6], for which, in assay [4] (FKBP 36V), the DC50 was 1.3 nM. Further, the half-maximal inhibitory concentration (IC50) at GST-FKBP12 (WT) is more than 50000 nM; on GST-FKBP12 (36V), 311 nM.

For the compound `Cc1sc2c(c1C)C(c1ccc(Cl)cc1)=N[C@@H](CC(=O)NCCNC(=O)COc1cccc3c1C(=O)N(C1CCC(=O)NC1=O)C3=O)c1nnc(C)n1-2` (stereo partly shown) [dBET3], the “Conc@Emax” value in assay [1] (concentration at Emax) came out at 0.5 µM. On CRBN-DDB1/BRD4 (setting [6]), the “Dimer Amplitude” value is listed as 16389 and the “Dimer Mean” value is −7.497. Besides, on CRBN-DDB1/BRD4 (setting [7]), the “Dimer SD” value is 0.6763.

Regarding `Cc1sc2c(c1C)C(c1ccc(Cl)cc1)=N[C@@H](CC(=O)NCCCCCCNC(=O)c1ccc3c(c1)C(=O)N(C1CCC(=O)NC1=O)C3=O)c1nnc(C)n1-2` (stereo partly shown) [dBET15], in assay [1], the “Conc@Emax” value turned out to be 5 µM. On CRBN-DDB1/BRD4, the “Dimer Amplitude” value is on record as 13540, the “Dimer Mean” value is on record as −7.111 and the “Dimer SD” value is recorded as 0.6279.

On to `COc1ccc(CC[C@@H](OC(=O)[C@@H]2CCCCN2C(=O)Cc2ccccc2)c2cccc(OCC(=O)NCCCCNC(=O)COc3cccc4c3C(=O)N(C3CCC(=O)NC3=O)C4=O)c2)cc1OC` (stereo partly shown) [c1FKBP-5], for which the “Max Degradation (dual luciferase, %) FKBP 36V” value in assay [4] is less than 5%. In addition, in [5], the DC50 was found to be 2970 nM and the “Max Degradation (dual luciferase, %) FKBP” value came out at 11%. In addition, the half-maximal inhibitory concentration (IC50) on GST-FKBP12 (WT) was more than 50000 nM. At GST-FKBP12 (36V), the half-inhibitory concentration (IC50) came to 2290 nM.
